Data as given in PubChem BioAssay AID1963868 (Molecular Pharmacology Branch, DTP, NCI, 2024).
Where “and” joins values, the source holds several entries; their conditions need not be identical. Identical values can stand only once.

System: KRAS PDC tumor spheroids (HUVEC+MSC), viability
Experiment: Anticancer human tumor 254851-301-R-J1-PDC patient-derived colon carcinoma cell line growth inhibition [KRAS2]
Conditions: for viability, T/C: stronger effect = lower value
Procedure, shortened: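 KRAS-mutant tumor cells were grown as spheroids with HUVEC endothelial cells and human MSCs as stroma. Targeted agents were tested alone and with KRAS pathway inhibitors. Doses started at or near clinical Cmax, or 10 microM, descending half-log.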

[1] = curve of first compound, second compound 0.1 µM
[2] = curve of first compound, second compound 0.316 µM
[3] = curve of first compound, second compound 1 µM
[4] = curve of first compound, second compound 3.16 µM
[5] = second compound 0.1 µM, first compound 0.0316 µM
[6] = second compound 0.1 µM, first compound 0.1 µM
[7] = second compound 0.1 µM, first compound 0.316 µM
[8] = second compound 0.1 µM, first compound 1 µM
[9] = second compound 0.1 µM, first compound 3.16 µM
[10] = second compound 0.1 µM, first compound 10 µM
[11] = second compound 0.316 µM, first compound 0.0316 µM
[12] = second compound 0.316 µM, first compound 0.1 µM
[13] = second compound 0.316 µM, first compound 0.316 µM
[14] = second compound 0.316 µM, first compound 1 µM
[15] = second compound 0.316 µM, first compound 3.16 µM
[16] = second compound 0.316 µM, first compound 10 µM
[17] = second compound 1 µM, first compound 0.0316 µM
[18] = second compound 1 µM, first compound 0.1 µM
[19] = second compound 1 µM, first compound 0.316 µM
[20] = second compound 1 µM, first compound 1 µM
[21] = second compound 1 µM, first compound 3.16 µM
[22] = second compound 1 µM, first compound 10 µM
[23] = second compound 3.16 µM, first compound 0.0316 µM
[24] = second compound 3.16 µM, first compound 0.1 µM
[25] = second compound 3.16 µM, first compound 0.316 µM
[26] = second compound 3.16 µM, first compound 1 µM
[27] = second compound 3.16 µM, first compound 3.16 µM
[28] = second compound 3.16 µM, first compound 10 µM
[29] = curve of first compound, second compound 0.0316 µM
[30] = second compound 0.0316 µM, first compound 0.0316 µM
[31] = second compound 0.0316 µM, first compound 0.1 µM
[32] = second compound 0.0316 µM, first compound 0.316 µM
[33] = second compound 0.0316 µM, first compound 1 µM
[34] = second compound 0.0316 µM, first compound 3.16 µM
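Further: spheroids exposed to compounds for seven days before readout.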
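Wherever viability, T/C is given: 100% = DMSO vehicle control luminescence of the spheroids.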

Molecule `CC(C)NCC(C(=O)N1CCN(c2ncnc3c2C(C)CC3O)CC1)c1ccc(Cl)cc1` (configuration not stated) + C=CC(=O)N1CCN(c2nc(=O)n(-c3c(C)ccnc3C(C)C)c3nc(-c4c(O)cccc4F)c(F)cc23)C(C)C1 has an IC50 [1] of over 10000 nM, an IC50 [2] of over 10000 nM and an IC50 [3] of over 10000 nM. The IC50 [4] was over 10000 nM, the IC50 (curve of first compound, second compound 10 µM) was over 10000 nM and the viability, T/C [5] was 98.2%. It also gave a viability, T/C [6] of 105%, a viability, T/C [7] of 92.1% and a viability, T/C [8] of 98.6%. For the same molecule, the viability, T/C [9] was 98.4%, the viability, T/C [10] was 97% and the viability, T/C [11] was 97.4%. It also gave a viability, T/C [12] of 92.6%, a viability, T/C [13] of 91.7% and a viability, T/C [14] of 96.4%. It also gave a viability, T/C [15] of 89.2%, a viability, T/C [16] of 89.8% and a viability, T/C [17] of 96.9%. The viability, T/C [18] was 99.9%, the viability, T/C [19] was 93% and the viability, T/C [20] was 86.1%. It also gave a viability, T/C [21] of 92.5%, a viability, T/C [22] of 91.2% and a viability, T/C [23] of 98.1%. For the same molecule, the viability, T/C [24] was 105%, the viability, T/C [25] was 95.5% and the viability, T/C [26] was 98.1%. It also gave a viability, T/C [27] of 93.8%, a viability, T/C [28] of 88.4% and a viability, T/C (second compound 10 µM, first compound 0.0316 µM) of 98.7%. It also gave a viability, T/C (second compound 10 µM, first compound 0.1 µM) of 102%, a viability, T/C (second compound 10 µM, first compound 0.316 µM) of 92.1% and a viability, T/C (second compound 10 µM, first compound 1 µM) of 85.4%. The viability, T/C (second compound 10 µM, first compound 3.16 µM) was 93.4% and the viability, T/C (second compound 10 µM, first compound 10 µM) was 94.7%.
With `CC(=O)OC12COC1CC(O)C1(C)C(=O)C(O)C3=C(C)C(OC(=O)C(O)C(NC(=O)OC(C)(C)C)c4ccccc4)CC(O)(C(OC(=O)c4ccccc4)C21)C3(C)C` (configuration not stated) + C=CC(=O)N1CCN(c2nc(OCC3CCCN3C)nc3c2CCN(c2cccc4cccc(C)c24)C3)CC1CC#N the IC50 [29] was 206 nM, the IC50 [1] was 198 nM and the IC50 [2] was 163 nM. For the same molecule, the IC50 [3] was 140 nM, the IC50 [4] was 203 nM and the viability, T/C (second compound 0.0316 µM, first compound 0.01 µM) was 102%. It also gave a viability, T/C [30] of 95.9%, a viability, T/C [31] of 69.3% and a viability, T/C [32] of 38.4%. The viability, T/C [33] was 29%, the viability, T/C [34] was 26.1% and the viability, T/C (second compound 0.1 µM, first compound 0.01 µM) was 99.1%. The viability, T/C [5] was 91.2%, the viability, T/C [6] was 61.4% and the viability, T/C [7] was 43%. For the same molecule, the viability, T/C [8] was 27.3%, the viability, T/C [9] was 25.6% and the viability, T/C (second compound 0.316 µM, first compound 0.01 µM) was 98.1%. The viability, T/C [11] was 88%, the viability, T/C [12] was 60.8% and the viability, T/C [13] was 35.4%. The viability, T/C [14] was 26.5%, the viability, T/C [15] was 24.3% and the viability, T/C (second compound 1 µM, first compound 0.01 µM) was 93%. It also gave a viability, T/C [17] of 94.5%, a viability, T/C [18] of 56.2% and a viability, T/C [19] of 34%. For the same molecule, the viability, T/C [20] was 24.4%, the viability, T/C [21] was 22.9% and the viability, T/C (second compound 3.16 µM, first compound 0.01 µM) was 94.3%. It also gave a viability, T/C [23] of 86.7%, a viability, T/C [24] of 69.1% and a viability, T/C [25] of 38.5%. It also gave a viability, T/C [26] of 24.2% and a viability, T/C [27] of 23.7%.
For `CC(C)NCC(C(=O)N1CCN(c2ncnc3c2C(C)CC3O)CC1)c1ccc(Cl)cc1` (configuration not stated) + C=CC(=O)N1CCN(c2nc(OCC3CCCN3C)nc3c2CCN(c2cccc4cccc(C)c24)C3)CC1CC#N, the IC50 [29] was over 10000 nM, the IC50 [1] was over 10000 nM and the IC50 [2] was over 10000 nM. The IC50 [3] was over 10000 nM, the IC50 [4] was 85.7 nM and the viability, T/C [30] was 96.9%. The viability, T/C [31] was 96.1%, the viability, T/C [32] was 87.4% and the viability, T/C [33] was 98.2%. The viability, T/C [34] was 95.8%, the viability, T/C (second compound 0.0316 µM, first compound 10 µM) was 94.7% and the viability, T/C [5] was 107%. For the same molecule, the viability, T/C [6] was 101%, the viability, T/C [7] was 99.9% and the viability, T/C [8] was 77.1%. It also gave a viability, T/C [9] of 89.9%, a viability, T/C [10] of 92.1% and a viability, T/C [11] of 97.7%. It also gave a viability, T/C [12] of 93.9%, a viability, T/C [13] of 92% and a viability, T/C [14] of 95.9%. It also gave a viability, T/C [15] of 88.8%, a viability, T/C [16] of 87.6% and a viability, T/C [17] of 95.4%. The viability, T/C [18] was 98.5%, the viability, T/C [19] was 91.6% and the viability, T/C [20] was 86.3%. The viability, T/C [21] was 97.9%, the viability, T/C [22] was 86.2% and the viability, T/C [23] was 62%. The viability, T/C [24] was 48.2%, the viability, T/C [25] was 37% and the viability, T/C [26] was 18.1%. The viability, T/C [27] was 22.6% and the viability, T/C [28] was 8.5%.
In the case of `CC(C)n1nc(-c2ccc3oc(N)nc3c2)c2c(N)ncnc21`, the viability, T/C (compound 0.000316 µM) is reported as 107% [middle of 5 runs], the viability, T/C (compound 0.001 µM) is reported as 99.5% (2×) and 104% (2×) and 101% and the viability, T/C (compound 0.00316 µM) is reported as 92.6% [middle of 5 runs]. For the same molecule, the viability, T/C (compound 0.01 µM) was 63.2% [middle of 5 runs], the viability, T/C (compound 0.0316 µM) was 33.3% [middle of 5 runs] and the viability, T/C (compound 0.1 µM) was 24.5% [middle of 5 runs]. The IC50 (curve of compound) was 18.9 nM [middle of 4 runs].
